Data reported in article PMC8039949, “A novel small-molecule PROTAC selectively promotes tau clearance to improve cognitive functions in Alzheimer-like models” (Theranostics, 2021).

Biological target: tau (Mus musculus, UniProt P10637)
Assay: Single-dose subcutaneous administration in wild-type mice, brain tau by Western blotting
Assay type: in vivo
Protocol: For brain surgery and stereotaxic cerebroventricular drug delivery, the mice were placed in a stereotaxic apparatus and anesthetized with 2% isoflurane (RWD Life Science, R510-22) through a nose cone (300-500 mL/min, RWD Life Science, China, R500). The scalp was incised along the midline between the ears after the mice were sterilized with iodophors and 75% (vol/vol) alcohol. The holes were drilled stereotaxically in the skull at a cerebroventricular location (posterior 0.22 mm, lateral 0.9 mm, and ventral 2.3 mm relative to bregma). Using a microinjection system (Shenzhen RWD Life Technology Co., Ltd; RWD 69100), C004019 (5 μL, 200 μM) was infused at a rate of 0.5 μL/min. The needle was kept in place for 10 min before withdrawal. After the skin was sutured, the mice were placed on a heater for analepsia. For subcutaneous injection, C004019 was diluted with 20% HP-β-CD and injected under the skin on the back neck to reach a final concentration of 3 mg/kg (low dose) or 15 mg/kg (high dose).
The cells or hippocampal/cortex tissues were homogenized for ~ 30 min on ice in buffer [50 mM Tris·HCl pH 7.4-7.5, 100 mM NaCl, 1% (vol/vol) Triton X-100, 5 mM EDTA, 1:100 PMSF, 1:1,000 protease inhibitor cocktail containing 4-(2-Aminoethyl)-benzenesulfonyl fluoride hydrochloride, aprotinin, bestatin, leupeptin, E-64, and pepstatin A stored at 4 °C], and then centrifuged at 12,000 × g at 4 °C for 20 min. The supernatant was collected and the protein levels were analyzed using bicinchoninic acid (BCA, KF016, Sigma-Aldrich) by following the manufacturer's instruction (served as soluble protein). The pellet was further incubated with 8% (wt/vol) SDS buffer at 4 °C and then treated by ultrasonic wave to reach a complete resuspension. The suspension was spun (18,000 × g, 4 °C for 20 min) and the supernatant collected (served as insoluble fraction). The supernatant of different faction was respectively mixed with loading buffer (3:1, vol/vol) containing 200 mM Tris-HCl, pH 6.8, 8% SDS, 40% glycerol, and boiled for 10 min. For Western blotting, the proteins were separated by 10% SDS-polyacrylamide gel via electrophoresis for about 2 h and transferred to nitrocellulose membranes ([…]) for 1 h. The membranes were blocked with 5% (wt/vol) BSA dissolved in PBS for 1 h and incubated with primary antibodies overnight at 4 °C in cold room. Membranes were then incubated with a secondary antibody for 1 h at room temperature and visualized using the ECL Imaging System (610007-8Q, Clinx Science Instruments Co., Ltd). Immunoreactive bands were quantitatively analyzed by Image J2x software.

Sequence of tau (P10637 114-430 isoform P10637-2 limits assumed): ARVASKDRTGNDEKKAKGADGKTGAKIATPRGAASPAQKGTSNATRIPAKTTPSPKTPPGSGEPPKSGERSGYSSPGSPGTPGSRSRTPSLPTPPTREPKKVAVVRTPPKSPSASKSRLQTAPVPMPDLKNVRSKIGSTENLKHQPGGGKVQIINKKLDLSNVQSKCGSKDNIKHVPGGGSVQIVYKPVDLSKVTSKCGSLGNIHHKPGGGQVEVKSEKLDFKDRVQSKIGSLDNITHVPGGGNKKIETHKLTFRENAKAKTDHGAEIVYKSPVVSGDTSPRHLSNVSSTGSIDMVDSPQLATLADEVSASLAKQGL

duration of tau reduction in the brain (4 m-old wild-type mice, single-dose subcutaneous 3 mg/kg): sustained tau reduction till 8 days
tau level in hippocampus and cortex (4 m-old wild-type mice, subcutaneous 15 mg/kg, 24 h and 48 h): Significant tau reduction
tau reduction (wild-type mice, 8 days after one treatment): 50%
Compound: CC(=O)N1CCCN(c2nc(NCCc3cccs3)nc(N(C)CC(=O)NCCOCCOCCOCC(=O)N[C@H](C(=O)N3C[C@H](O)C[C@H]3C(=O)NCc3ccc(-c4scnc4C)cc3)C(C)(C)C)n2)CC1 [C004019]
tau level in hippocampus and cortex (4 m-old wild-type mice, subcutaneous 3 mg/kg, 24 h, compared with 15 mg/kg): much more significant tau reduction than that of high dose
